# Test system: C57/BL6 mice
# Test: Contextual fear conditioning in the presence of thiazoline-related fear odor (inhibition of fear memory formation), freezing behavior
# Assay type: in vivo
# Details: filter paper impregnated with 100 μl or 10 μl of 2MT during fear conditioning; freezing measured for 10 min on day 3 with Eugenol; compared to group that learned with no odor; FIG. 1
# Procedure: • Day 0: About 2-month-old C57/BL6 mice were placed in an electric shock chamber, and 2-second electric shock (0.6 mA) was given 6 times at 2-minute intervals for 12 min for contextual fear conditioning. Conditioning was performed under 4 conditions of no odor condition (control; n=6) (group 1) and an electric shock chamber with filter paper impregnated with 100 μl of 2-methyl-2-thiazoline (2MT) condition (2MT; n=6) (group 2), or no odor condition (control; n=6) (group 3) and an electric shock chamber with filter paper impregnated with 10 μl of 2-methyl-2-thiazoline (2MT) condition (2MT; n=6) (group 4). • Day 1: Mice were placed in the electric shock chamber (no odor) used for learning on the previous day, and freezing behavior was measured for 10 min using dedicated software (Freeze frame 2; ActiMetrics). • Day 3: The mice of group 1 and group 2 were placed in an electric shock chamber with filter paper impregnated with 100 μl of Eugenol, and freezing behavior was measured for 10 min. The mice in group 3 and group 4 were placed in an electric shock chamber with filter paper impregnated with 10 μl of Eugenol, and freezing behavior was measured for 10 min.
# A student's t-test was also performed between the group with no odor and the group with 2MT (**p<0.01, ***p<0.001).
row,Structure (SMILES),freezing behavior in the context with odor (eugenol odor context; day 3)
1,CC1=NCCS1 [2-methyl-2-thiazoline],marked decrease

# Same assay, conditions: filter paper impregnated with 100 μl or 10 μl of 2MT in electric shock chamber during fear conditioning; freezing measured for 10 min on day 1; compared to no odor group; FIG. 1
row,Structure (SMILES),freezing behavior in the no odor context (day 1)
1,CC1=NCCS1 [2-methyl-2-thiazoline],remarkably decreased

# Test system: C57/BL6 mice
# Test: Contextual fear conditioning 30 min after intraperitoneal administration (inhibition of fear memory formation), freezing behavior
# Assay type: in vivo
# Details: intraperitoneal 200 μl of 1 v/v % solution in saline, 30 min before conditioning; freezing for 10 min on day 1, no odor; compared with saline-administered group (=100%); n=6; FIG. 2-12
# Procedure: • Day 0: To about 2 month-old C57/BL6 mice was intraperitoneally administered 200 μl of saline, or 1 v/v % 2-methyl-2-thiazoline solution (dissolved in saline), or 1 v/v % 5-methylthiazole solution (dissolved in saline), or 1 v/v % 4-ethyl-2-methyl-2-thiazoline solution (dissolved in saline), or 1 v/v % 2,4,5-trimethyl-3-thiazoline solution (dissolved in saline), or 1 v/v % thiomorpholine solution (dissolved in saline), or 1 v/v % allyl isothiocyanate (AITC) solution (dissolved in saline), or 1 v/v % 2,3-diethylpyrazine solution (dissolved in saline), or 1 v/v % 2,6-lutidine solution (dissolved in saline) (each condition n=6). Thirty minutes after the administration, the mice were placed in an electric shock chamber, and 2-second electric shock (0.6 mA) was given 6 times at 2-minute intervals for 12 min for contextual fear conditioning. • Day 1: Mice were placed in the electric shock chamber (no odor) used for learning on the previous day, and freezing behavior was measured for 10 min using dedicated software (Freeze frame 2).
# In addition, a student's t-test was performed between the saline-administered group and each compound-administered group (*p<0.05, ***p<0.001).
# • Day 0: To about 2 month-old C57/BL6 mice was intraperitoneally administered 200 μl of saline or 1 v/v % 2-(allylthio)-2-thiazoline solution (dissolved in saline) (each condition n=6). Thirty minutes after the administration, the mice were placed in an electric shock chamber, and 2-second electric shock (0.6 mA) was given 6 times at 2-minute intervals for 12 min for contextual fear conditioning. • Day 1: Mice were placed in the electric shock chamber (no odor) used for learning on the previous day, and freezing behavior was measured for 10 min using dedicated software (Freeze frame 2).
# A student's t-test was performed between the saline-administered group and the 2-(allylthio)-2-thiazoline-administered group (*p<0.05).
# • Day 0: To about 2 month-old C57/BL6 mice was intraperitoneally administered 200 μl of saline or 1 v/v % 4-tert-butyl-2-methylthiazole solution (dissolved in saline) (each condition n=6). Thirty minutes after the administration, the mice were placed in an electric shock chamber, and 2-second electric shock (0.6 mA) was given 6 times at 2-minute intervals for 12 min for contextual fear conditioning. • Day 1: Mice were placed in the electric shock chamber (no odor) used for learning on the previous day, and freezing behavior was measured for 10 min using dedicated software (Freeze frame 2).
# • Day 0: To about 2 month-old C57/BL6 mice was intraperitoneally administered 200 μl of saline or 1 v/v % 2-ethoxythiazole solution (dissolved in saline) (each condition n=6). Thirty minutes after the administration, the mice were placed in an electric shock chamber, and 2-second electric shock (0.6 mA) was given 6 times at 2-minute intervals for 12 min for contextual fear conditioning. • Day 1: Mice were placed in the electric shock chamber (no odor) used for learning on the previous day, and freezing behavior was measured for 10 min using dedicated software (Freeze frame 2).
# • Day 0: To about 2 month-old C57/BL6 mice was intraperitoneally administered 200 μl of saline or 1 v/v % 2-methylbenzothiazole solution (dissolved in saline) (each condition n=6). Thirty minutes after the administration, the mice were placed in an electric shock chamber, and 2-second electric shock (0.6 mA) was given 6 times at 2-minute intervals for 12 min for contextual fear conditioning. • Day 1: Mice were placed in the electric shock chamber (no odor) used for learning on the previous day, and freezing behavior was measured for 10 min using dedicated software (Freeze frame 2).
# • Day 0: To about 2 month-old 057/BL6 mice was intraperitoneally administered 200 μl of saline or 1 v/v % 2-mercaptothiazole solution (dissolved in saline) (each condition n=6). […]
row,Structure (SMILES),frequency of freezing behavior during the test (day 1)
1,"CCc1nccnc1CC [2,3-diethylpyrazine]",significant decrease
2,"CC1=NC(C)SC1C (centres unmarked) [2,4,5-trimethyl-3-thiazoline]",significant decrease
3,"Cc1cccc(C)n1 [2,6-lutidine]",significant decrease
4,C=CCSC1=NCCS1 [2-(allylthio)-2-thiazoline],significant decrease
5,CC(=O)c1ccc[nH]1 [2-acetylpyrrole],significant decrease
6,NC1=NCCS1 [2-amino-2-thiazoline],significant decrease
7,CCOc1nccs1 [2-ethoxythiazole],significant decrease
8,Sc1nccs1 [2-mercaptothiazole],significant decrease
9,CC1=NCCS1 [2-methyl-2-thiazoline],significant decrease
10,Cc1nc2ccccc2s1 [2-methylbenzothiazole],significant decrease
11,Cc1nccs1 [2-methylthiazole],significant decrease
12,CC1CNCCS1 (centres unmarked) [2-methylthiomorpholine],significant decrease
13,CCC1CSC(C)=N1 (centres unmarked) [4-ethyl-2-methyl-2-thiazoline],significant decrease
14,Cc1nc(C(C)(C)C)cs1 [4-tert-butyl-2-methylthiazole],significant decrease
15,Cc1cncs1 [5-methylthiazole],significant decrease
16,"C=CCN=C=S [AITC, allyl isothiocyanate]",significant decrease
17,C=C(C)CN=C=S [methallyl isothiocyanate],significant decrease
18,C1CSCCN1 [thiomorpholine],significant decrease

# From patent publication US20230293542A1, “SENSORY STIMULATING PSYCHOTROPIC DRUG” (KANSAI MEDICAL UNIVERSITY, priority 2020, published 2023)
